From patent US7825146B2, “Sulfonamide derivative having isoxazole ring” (Shionogi & Co., Ltd., priority 2003, dated 2010)

biological target: T1, MMP-8 (Homo sapiens, UniProt P22894); experiment: Assay for inhibitory activities on MMPs (fluorogenic MOCAc peptide substrate): MMP-8; type: biochemical; conditions: catalytic domain 99Phe-262Gly
T1 construct: In regard to MMP-8, catalytic domain (^99Phe˜^262Gly) was amplified with PCR; His-tag; enterokinase digestion-site; made in house
Source text: In regard to MMP-8, catalytic domain (^99Phe˜^262Gly) was amplified with PCR using commercial available Human Bone Marrow cDNA. This was cloned in Escherichia. coli expression vector pTrc99AHE inserted with His-tag sequence and enterokinase digestion-site, induced and expressed by IPTG (Isdpropyl-β-D-thiogalactopyranoside) and expressed in a insoluble fraction (Thau F. Ho, M. Walid Qoronfleh, Robert C. Wahl, Trica A. Pulvino, Karen J. Vavra, Joe Falvo, Tracey M. Banks, Patricia G. Brake and Richard B. Ciccarelli: Gene expression, purification and characterization of recombinant human neutrophil collagenase. Gene 146, (1994) 297-301, Prepared by the a improved method of this material). Isolation of MMP-8 from an insoluble fraction was carried out by dissolving in modifier (6M urea) by a usual method and purification with metal chelate chromatography. And then removing modifier (6M urea) with dialysis and refolding of the enzyme spontaneously gave activated MMP-8.
(§1) The enzymatic activity on MMPs was analyzed by the method described in “C. Graham Knight, Frances Willenbrock and Gillian Murphy: A novel coumarin-labelled peptide for sensitive continuous assays of the matrix metalloproteinases: FEBS LETT., 296, (1992), 263-266”. The substrate: MOCAc-Pro-Leu-Gly-Leu-A2Pr(DNP)-Ala-Arg-NH2 was purchased from Peptide Institute, Inc., Osaka, Japan. The measurement of the inhibitory activities (IC50) was carried out by the following four methods; • (A) Reaction with substrate, enzyme (MMPs) and inhibitor • (B) Reaction with substrate and inhibitor, without enzyme • (C) Reaction with substrate and enzyme (MMPs), without inhibitor • (D) Reaction with substrate only IC50 values were calculated by using the following formula and each fluorescence values of above four methods (A to D).
(§2) The value of inhibitory activity against MMP-2, MMP-8, MMP-9, MMP-12, and MMP-13 measured by above mentioned methods are shown in Table 36, 37, 38, 39, and 40 respectively.

T1 sequence (P22894 99-262): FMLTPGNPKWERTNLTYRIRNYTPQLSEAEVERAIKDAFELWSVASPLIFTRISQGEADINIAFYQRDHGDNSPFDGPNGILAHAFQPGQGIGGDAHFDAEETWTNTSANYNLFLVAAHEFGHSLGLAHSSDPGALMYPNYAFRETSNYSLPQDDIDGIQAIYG

IC50	Structure (SMILES)
0.00111 µM	CCC(C)[C@H](NS(=O)(=O)c1ccc(-c2cc(-c3ccc(Cl)s3)on2)cc1)C(=O)O (stereo partly drawn) [Example C-100]
0.0023 µM	Cc1ccc(-c2cc(-c3ccc(S(=O)(=O)N[C@H](CC(=O)O)C(=O)O)cc3)no2)s1 [Example C-116]
0.00252 µM	Cc1ccc(-c2cc(-c3ccc(S(=O)(=O)N[C@@H](C(=O)O)C(C)(C)C)cc3)no2)s1 [Example C-110]
0.00463 µM	CC(C)C[C@@H](NS(=O)(=O)c1ccc(-c2cc(-c3ccc(Cl)s3)on2)cc1)C(=O)O [Example C-78]

biological target: T2, MMP-12 (Homo sapiens, UniProt P39900); experiment: Assay for inhibitory activities on MMPs (fluorogenic MOCAc peptide substrate): MMP-12; type: biochemical; conditions: catalytic domain 100Phe-263Gly
T2 construct: In regard to MMP-12, catalytic domain(^100Phe˜^263Gly) was amplified with RT-PCR; His-tag; enterokinase digestion-site; made in house
T2 sequence (P39900 100-263): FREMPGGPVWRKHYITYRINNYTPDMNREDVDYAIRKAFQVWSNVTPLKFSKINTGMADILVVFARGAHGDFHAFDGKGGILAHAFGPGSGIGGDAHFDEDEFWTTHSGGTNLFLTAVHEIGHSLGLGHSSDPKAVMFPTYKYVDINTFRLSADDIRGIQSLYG
Method: In regard to MMP-12, catalytic domain(^100Phe˜^263Gly) was amplified with RT-PCR from Human Placenta Total RNA. This was cloned in Escherichia. coli expression vector pTrc99AHE inserted with His-tag sequence and enterokinase digestion-site, induced and expressed by IPTG (Isopropyl-β-D-thiogalactopyranoside) and expressed in a insoluble fraction. Isolation of MMP-12 from an insoluble fraction was carried out by dissolving in modifier (6M urea) by a usual method and purification with metal chelate chromatography (Ni Chelateing Sepharose). And then removing modifier (6M urea) with dialysis and refolding of the enzyme spontaneously gave activated MMP-12.
as §1, §2

IC50	Structure (SMILES)
0.000676 µM	CCc1ccc(-c2cc(-c3ccc(S(=O)(=O)N[C@@H](CC(C)C)C(=O)O)cc3)no2)s1 [Example C-77]
0.000245 µM	Cc1ccc(-c2cc(-c3ccc(S(=O)(=O)N[C@@H](CC(C)C)C(=O)O)cc3)no2)cc1F [Example C-84]
0.000257 µM	CCC(C)[C@H](NS(=O)(=O)c1ccc(-c2cc(-c3ccc(Cl)cc3)on2)cc1)C(=O)O (stereo partly drawn) [Example C-107]
0.000357 µM	CC(C)C[C@H](NS(=O)(=O)c1ccc(-c2cc(-c3ccc(Cl)c(F)c3)no2)cc1)C(=O)O [Example A-81]
0.000409 µM	Cc1ccc(-c2cc(-c3ccc(S(=O)(=O)N[C@H](C(=O)O)C(C)C)cc3)no2)cc1 [Example C-9]
0.00086 µM	CC(C)[C@H](NS(=O)(=O)c1ccc(-c2cc(-c3ccc(Cl)cc3)no2)cc1)C(=O)O [Example A-23]
0.000256 µM	CCC(C)[C@H](NS(=O)(=O)c1ccc(-c2cc(-c3ccc(C)cc3)on2)cc1)C(=O)O (stereo partly drawn) [Example C-94]
0.000559 µM	Cc1ccc(-c2cc(-c3ccc(S(=O)(=O)N[C@@H](C(=O)O)C(C)C)cc3)no2)cc1 [Example C-8]
0.000492 µM	CC(C)C[C@H](NS(=O)(=O)c1ccc(-c2cc(-c3ccc(Cl)cc3)no2)cc1)C(=O)O [Example A-65]
0.000592 µM	CCC(C)[C@H](NS(=O)(=O)c1ccc(-c2cc(-c3ccc(C(F)(F)F)cc3)no2)cc1)C(=O)O (stereo partly drawn) [Example A-102]
0.000889 µM	C[C@H](NS(=O)(=O)c1ccc(-c2cc(-c3ccc(OC(F)(F)F)cc3)no2)cc1)C(=O)O [Example A-6]
0.000967 µM	O=C(O)C[C@@H](NS(=O)(=O)c1ccc(-c2cc(-c3ccc(Cl)c(F)c3)on2)cc1)C(=O)O [Example C-117]
0.000754 µM	CC(C)[C@H](NS(=O)(=O)c1ccc(-c2cc(-c3ccc(F)c(F)c3)on2)cc1)C(=O)O [Example C-50]
0.00069 µM	CC(C)C[C@H](NS(=O)(=O)c1ccc(-c2cc(-c3ccc(F)c(F)c3)no2)cc1)C(=O)O [Example A-84]
0.000251 µM	CC(C)C[C@H](NS(=O)(=O)c1ccc(-c2cc(-c3ccc(C(F)(F)F)cc3)on2)cc1)C(=O)O [Example C-73]
0.000584 µM	CC(C)C[C@H](NS(=O)(=O)c1ccc(-c2cc(-c3ccc(C(F)(F)F)cc3)no2)cc1)C(=O)O [Example A-63]
0.000343 µM	Cc1ccc(-c2cc(-c3ccc(S(=O)(=O)N[C@@H](CC(C)C)C(=O)O)cc3)no2)cc1 [Example C-54]
0.000245 µM	Cc1ccc(-c2cc(-c3ccc(S(=O)(=O)N[C@@H](C(=O)O)C(C)C)cc3)no2)cc1F [Example C-38]
0.000806 µM	CC(C)[C@@H](NS(=O)(=O)c1ccc(-c2cc(-c3ccc(Br)cc3)no2)cc1)C(=O)O [Example A-24]
0.000295 µM	CC(C)C[C@H](NS(=O)(=O)c1ccc(-c2cc(-c3ccc(Cl)cc3)on2)cc1)C(=O)O [Example C-68]
0.000904 µM	COc1ccc(-c2cc(-c3ccc(S(=O)(=O)N[C@H](CC(=O)O)C(=O)O)cc3)no2)cc1F [Example C-118]
0.000203 µM	CC(C)C[C@H](NS(=O)(=O)c1ccc(-c2cc(-c3ccc(OC(F)(F)F)cc3)on2)cc1)C(=O)O [Example C-71]
0.000781 µM	CCC(C)[C@H](NS(=O)(=O)c1ccc(-c2cc(-c3ccc(F)cc3)on2)cc1)C(=O)O (stereo partly drawn) [Example C-106]
0.000518 µM	CC(C)[C@H](NS(=O)(=O)c1ccc(-c2cc(-c3ccc(Br)cc3)no2)cc1)C(=O)O [Example A-25]
0.000608 µM	CC(C)[C@H](NS(=O)(=O)c1ccc(-c2cc(-c3ccc(C(F)(F)F)cc3)no2)cc1)C(=O)O [Example A-21]
0.000861 µM	CC(C)[C@@H](NS(=O)(=O)c1ccc(-c2cc(-c3ccc(Cl)c(F)c3)no2)cc1)C(=O)O [Example A-40]
0.000834 µM	CC(C)[C@@H](NS(=O)(=O)c1ccc(-c2cc(-c3ccc(F)c(F)c3)on2)cc1)C(=O)O [Example C-49]

IC50	Structure (SMILES)
0.00029 µM	CSc1ccc(-c2cc(-c3ccc(S(=O)(=O)N[C@@H](CC(C)C)C(=O)O)cc3)no2)cc1 [Example C-62]
0.000525 µM	CCC(C)[C@H](NS(=O)(=O)c1ccc(-c2cc(-c3ccc(F)c(F)c3)on2)cc1)C(=O)O (stereo partly drawn) [Example C-108]
0.000177 µM	CCC(C)[C@H](NS(=O)(=O)c1ccc(-c2cc(-c3ccc(Br)cc3)on2)cc1)C(=O)O (stereo partly drawn) [Example C-103]
0.00047 µM	CC(C)[C@H](NS(=O)(=O)c1ccc(-c2cc(-c3ccc(Cl)c(F)c3)no2)cc1)C(=O)O [Example A-41]
0.000174 µM	CCC(C)[C@H](NS(=O)(=O)c1ccc(-c2cc(-c3ccc(C)c(F)c3)on2)cc1)C(=O)O (stereo partly drawn) [Example C-105]
0.00081 µM	Cc1ccc(-c2cc(-c3ccc(S(=O)(=O)N[C@@H](CC(C)C)C(=O)O)cc3)on2)cc1 [Example A-61]
0.000216 µM	CCCc1ccc(-c2cc(-c3ccc(S(=O)(=O)N[C@@H](CC(C)C)C(=O)O)cc3)no2)cc1 [Example C-58]
0.000723 µM	CC(C)[C@@H](NS(=O)(=O)c1ccc(-c2cc(-c3ccc(C(F)(F)F)cc3)no2)cc1)C(=O)O [Example A-20]
0.000379 µM	CCC(C)[C@H](NS(=O)(=O)c1ccc(-c2cc(-c3ccc(Cl)c(F)c3)no2)cc1)C(=O)O (stereo partly drawn) [Example A-104]
0.000951 µM	Cc1ccc(-c2cc(-c3ccc(S(=O)(=O)N[C@@H](C(=O)O)C(C)(C)C)cc3)no2)cc1 [Example C-109]
0.000233 µM	CC(C)C[C@H](NS(=O)(=O)c1ccc(-c2cc(-c3ccc(Cl)c(F)c3)on2)cc1)C(=O)O [Example C-82]
0.000336 µM	CC(C)[C@H](NS(=O)(=O)c1ccc(-c2cc(-c3ccc(Cl)cc3)on2)cc1)C(=O)O [Example C-21]
0.000908 µM	COc1ccc(-c2cc(-c3ccc(S(=O)(=O)N[C@@H](C(=O)O)C(C)C)cc3)on2)cc1F [Example A-38]
0.000547 µM	CCc1ccc(-c2cc(-c3ccc(S(=O)(=O)N[C@@H](C)C(=O)O)cc3)no2)cc1 [Example C-3]
0.000209 µM	CC(C)[C@H](NS(=O)(=O)c1ccc(-c2cc(-c3ccc(C(F)(F)F)cc3)on2)cc1)C(=O)O [Example C-28]
0.00043 µM	CC(C)C[C@H](NS(=O)(=O)c1ccc(-c2cc(-c3ccc(Br)cc3)no2)cc1)C(=O)O [Example A-66]
0.000218 µM	CC(C)C[C@H](NS(=O)(=O)c1ccc(-c2cc(-c3ccc(Br)cc3)on2)cc1)C(=O)O [Example C-66]
0.000432 µM	COc1ccc(-c2cc(-c3ccc(S(=O)(=O)N[C@@H](CC(C)C)C(=O)O)cc3)no2)cc1 [Example C-64]
0.000289 µM	CCc1ccc(-c2cc(-c3ccc(S(=O)(=O)N[C@@H](CC(C)C)C(=O)O)cc3)no2)cc1 [Example C-56]
0.00076 µM	CCc1ccc(-c2cc(-c3ccc(S(=O)(=O)N[C@H](Cc4ccccc4)C(=O)O)cc3)no2)cc1 [Example C-123]
0.000575 µM	CC(C)[C@@H](NS(=O)(=O)c1ccc(-c2cc(-c3ccc(Cl)c(Cl)c3)on2)cc1)C(=O)O [Example C-40]
0.000877 µM	Cc1ccc(-c2cc(-c3ccc(S(=O)(=O)N[C@H](Cc4ccccc4)C(=O)O)cc3)no2)cc1 [Example C-122]
0.000708 µM	COc1ccc(-c2cc(-c3ccc(S(=O)(=O)N[C@H](C(=O)O)C(C)C)cc3)on2)cc1F [Example A-39]
0.000899 µM	Cc1ccc(-c2cc(-c3ccc(S(=O)(=O)N[C@@H](C)C(=O)O)cc3)no2)cc1 [Example C-2]
0.000205 µM	CC(C)[C@H](NS(=O)(=O)c1ccc(-c2cc(-c3ccc(Br)cc3)on2)cc1)C(=O)O [Example C-23]
0.000238 µM	Cc1ccc(-c2cc(-c3ccc(S(=O)(=O)N[C@H](C(=O)O)C(C)C)cc3)no2)cc1F [Example C-39]
